One compound from ChEMBL document CHEMBL5055685, “Discovery of the First Potent IDO1/IDO2 Dual Inhibitors: A Promising Strategy for Cancer Immunotherapy” (J Med Chem, 2021) can be followed below.

Series [1] is described as follows: Half life in dog liver microsomes assessed as rate constant. The series is classed as ADME, Canis lupus familiaris, Microsome. On the technique in general: Liver microsomes are vesicles of endoplasmic reticulum, rich in cytochrome P450 enzymes.
The target in series [2] is Aurora kinase B (Homo sapiens) (UniProt Q96GD4). Put plainly: Inhibition of Aurora B (unknown origin) at 1 uM.
Chain of Aurora kinase B (Homo sapiens) (Q96GD4 whole entry): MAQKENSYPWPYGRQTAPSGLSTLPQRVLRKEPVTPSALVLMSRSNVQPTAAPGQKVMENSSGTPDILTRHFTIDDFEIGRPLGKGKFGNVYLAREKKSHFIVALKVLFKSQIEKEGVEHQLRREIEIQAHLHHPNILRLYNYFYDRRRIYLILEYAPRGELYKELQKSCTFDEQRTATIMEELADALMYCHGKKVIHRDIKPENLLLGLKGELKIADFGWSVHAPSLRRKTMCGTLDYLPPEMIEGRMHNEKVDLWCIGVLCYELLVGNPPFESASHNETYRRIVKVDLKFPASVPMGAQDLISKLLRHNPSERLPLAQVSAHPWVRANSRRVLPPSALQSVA
Series [3] addresses Cytoplasmic tyrosine-protein kinase BMX (Homo sapiens) (UniProt P51813). Put plainly: Inhibition of BMX (unknown origin) at 1 uM.
In series [4] the target is CDK1/Cyclin E (Homo sapiens) (UniProt P06493+P24864). Put plainly: Inhibition of CDK1/cyclinE (unknown origin) at 1 uM. The class given is protein-complex assay.
Chain of CDK1/Cyclin E (Homo sapiens) (P06493 whole entry, looked up): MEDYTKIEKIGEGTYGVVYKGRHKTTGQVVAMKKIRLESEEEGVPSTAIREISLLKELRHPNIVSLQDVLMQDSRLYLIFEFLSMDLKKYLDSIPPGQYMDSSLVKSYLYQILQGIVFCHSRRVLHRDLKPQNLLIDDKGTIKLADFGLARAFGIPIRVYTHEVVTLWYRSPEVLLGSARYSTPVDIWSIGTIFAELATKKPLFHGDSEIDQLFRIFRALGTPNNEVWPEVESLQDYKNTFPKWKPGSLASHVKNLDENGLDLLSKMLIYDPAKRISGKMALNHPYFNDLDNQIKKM
Chain of CDK1/Cyclin E (Homo sapiens) (P24864 whole entry, looked up): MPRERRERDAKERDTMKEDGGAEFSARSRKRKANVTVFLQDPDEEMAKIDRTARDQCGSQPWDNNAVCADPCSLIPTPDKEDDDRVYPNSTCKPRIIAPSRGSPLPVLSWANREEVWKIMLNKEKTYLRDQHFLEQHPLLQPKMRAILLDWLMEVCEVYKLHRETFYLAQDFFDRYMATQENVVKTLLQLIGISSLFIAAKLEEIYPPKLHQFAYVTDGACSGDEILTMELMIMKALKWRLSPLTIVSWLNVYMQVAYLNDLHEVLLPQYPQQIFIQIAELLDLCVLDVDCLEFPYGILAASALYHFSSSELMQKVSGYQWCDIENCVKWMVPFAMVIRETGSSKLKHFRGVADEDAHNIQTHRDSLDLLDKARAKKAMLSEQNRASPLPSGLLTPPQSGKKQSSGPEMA
Series [5] addresses Dual specificity tyrosine-phosphorylation-regulated kinase 2 (Homo sapiens) (UniProt Q92630). The experiment in a line: Inhibition of DYRK2 (unknown origin) at 1 uM.
In series [6] the target is Fibroblast growth factor receptor 4 (Homo sapiens) (UniProt P22455). Put plainly: Inhibition of FGFR4 (unknown origin) at 1 uM.
Series [7] addresses Vascular endothelial growth factor receptor 3 (Homo sapiens) (UniProt P35916). The experiment in a line: Inhibition of FLT4 (unknown origin) at 1 uM.
In series [8] the target is Tyrosine-protein kinase Fyn (Homo sapiens) (UniProt P06241). Put plainly: Inhibition of FYN (unknown origin) at 1 uM.
Chain of Tyrosine-protein kinase Fyn (Homo sapiens) (P06241 2-537 limits assumed): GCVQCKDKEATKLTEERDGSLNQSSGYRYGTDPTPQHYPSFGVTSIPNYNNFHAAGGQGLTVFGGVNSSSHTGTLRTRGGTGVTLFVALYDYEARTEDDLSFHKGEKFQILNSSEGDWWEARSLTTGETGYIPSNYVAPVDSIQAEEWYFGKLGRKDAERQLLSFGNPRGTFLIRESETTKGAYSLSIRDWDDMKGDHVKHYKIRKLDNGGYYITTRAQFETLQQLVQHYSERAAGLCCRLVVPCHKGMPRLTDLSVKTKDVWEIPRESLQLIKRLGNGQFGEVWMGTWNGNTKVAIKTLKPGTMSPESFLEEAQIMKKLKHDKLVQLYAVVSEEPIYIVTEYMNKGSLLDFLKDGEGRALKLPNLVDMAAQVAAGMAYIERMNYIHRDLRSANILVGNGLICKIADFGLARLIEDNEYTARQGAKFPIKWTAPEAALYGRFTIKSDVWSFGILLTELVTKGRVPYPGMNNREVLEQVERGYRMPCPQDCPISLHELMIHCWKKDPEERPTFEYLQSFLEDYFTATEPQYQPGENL
For series [9], the target named is Homeodomain-interacting protein kinase 1 (Homo sapiens) (UniProt Q86Z02). The experiment in a line: Inhibition of HIPK1 (unknown origin) at 1 uM.
For series [10], the target named is SRSF protein kinase 3 (Homo sapiens) (UniProt Q9UPE1). The experiment in a line: Inhibition of MSSK1 (unknown origin) at 1 uM.
Chain of SRSF protein kinase 3 (Homo sapiens) (Q9UPE1 whole entry): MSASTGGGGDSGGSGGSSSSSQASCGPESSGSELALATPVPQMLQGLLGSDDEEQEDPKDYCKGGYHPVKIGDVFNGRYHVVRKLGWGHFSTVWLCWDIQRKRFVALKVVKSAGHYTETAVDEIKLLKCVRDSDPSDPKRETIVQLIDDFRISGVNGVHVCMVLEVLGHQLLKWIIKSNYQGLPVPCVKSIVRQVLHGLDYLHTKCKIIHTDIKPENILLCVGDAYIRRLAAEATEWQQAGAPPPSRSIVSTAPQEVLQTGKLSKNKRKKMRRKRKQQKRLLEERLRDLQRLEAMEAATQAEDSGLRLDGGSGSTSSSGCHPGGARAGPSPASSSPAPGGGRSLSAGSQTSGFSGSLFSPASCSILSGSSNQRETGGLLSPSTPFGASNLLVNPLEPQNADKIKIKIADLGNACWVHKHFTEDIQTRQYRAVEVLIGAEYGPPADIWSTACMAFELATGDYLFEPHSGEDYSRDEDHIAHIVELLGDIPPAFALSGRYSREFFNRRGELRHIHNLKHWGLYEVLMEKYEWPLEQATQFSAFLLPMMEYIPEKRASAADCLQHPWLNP

The structures appear in SMILES notation. The source made the active and inactive calls.

Chain of Vascular endothelial growth factor receptor 3 (Homo sapiens) (P35916 whole entry): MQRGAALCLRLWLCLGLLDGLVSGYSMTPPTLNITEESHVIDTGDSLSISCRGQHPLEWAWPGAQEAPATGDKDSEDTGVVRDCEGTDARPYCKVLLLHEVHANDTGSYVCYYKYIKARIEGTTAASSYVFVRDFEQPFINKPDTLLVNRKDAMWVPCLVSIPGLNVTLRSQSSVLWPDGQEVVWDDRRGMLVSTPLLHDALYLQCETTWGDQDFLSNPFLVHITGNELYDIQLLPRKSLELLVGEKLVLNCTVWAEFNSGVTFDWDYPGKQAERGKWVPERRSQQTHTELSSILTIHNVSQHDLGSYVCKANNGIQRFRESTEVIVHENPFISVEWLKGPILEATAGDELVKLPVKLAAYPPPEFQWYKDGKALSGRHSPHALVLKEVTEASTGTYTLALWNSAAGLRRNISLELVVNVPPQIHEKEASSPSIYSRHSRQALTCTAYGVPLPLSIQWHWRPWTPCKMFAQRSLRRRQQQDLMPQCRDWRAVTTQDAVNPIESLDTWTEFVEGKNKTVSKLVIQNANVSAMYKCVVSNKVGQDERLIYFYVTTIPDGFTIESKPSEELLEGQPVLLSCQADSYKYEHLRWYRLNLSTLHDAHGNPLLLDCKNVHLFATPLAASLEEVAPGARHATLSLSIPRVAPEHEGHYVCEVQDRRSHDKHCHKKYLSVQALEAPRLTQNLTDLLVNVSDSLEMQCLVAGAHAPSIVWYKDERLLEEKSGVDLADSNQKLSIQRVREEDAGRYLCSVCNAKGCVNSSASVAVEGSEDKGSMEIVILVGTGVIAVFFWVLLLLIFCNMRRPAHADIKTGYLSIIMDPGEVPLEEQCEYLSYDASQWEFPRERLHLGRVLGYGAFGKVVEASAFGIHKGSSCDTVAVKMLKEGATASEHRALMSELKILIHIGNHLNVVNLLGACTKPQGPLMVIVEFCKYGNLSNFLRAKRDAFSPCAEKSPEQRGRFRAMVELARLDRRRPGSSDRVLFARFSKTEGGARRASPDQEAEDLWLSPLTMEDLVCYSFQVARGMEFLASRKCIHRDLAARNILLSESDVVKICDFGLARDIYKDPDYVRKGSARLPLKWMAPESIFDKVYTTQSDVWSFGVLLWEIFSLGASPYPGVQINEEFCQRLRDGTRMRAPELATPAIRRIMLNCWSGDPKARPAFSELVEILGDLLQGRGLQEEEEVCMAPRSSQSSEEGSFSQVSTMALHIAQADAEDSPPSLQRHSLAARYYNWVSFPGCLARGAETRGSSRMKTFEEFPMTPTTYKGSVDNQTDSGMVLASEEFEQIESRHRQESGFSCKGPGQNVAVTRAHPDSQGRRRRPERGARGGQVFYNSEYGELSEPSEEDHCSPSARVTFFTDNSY
Chain of Cytoplasmic tyrosine-protein kinase BMX (Homo sapiens) (P51813 whole entry): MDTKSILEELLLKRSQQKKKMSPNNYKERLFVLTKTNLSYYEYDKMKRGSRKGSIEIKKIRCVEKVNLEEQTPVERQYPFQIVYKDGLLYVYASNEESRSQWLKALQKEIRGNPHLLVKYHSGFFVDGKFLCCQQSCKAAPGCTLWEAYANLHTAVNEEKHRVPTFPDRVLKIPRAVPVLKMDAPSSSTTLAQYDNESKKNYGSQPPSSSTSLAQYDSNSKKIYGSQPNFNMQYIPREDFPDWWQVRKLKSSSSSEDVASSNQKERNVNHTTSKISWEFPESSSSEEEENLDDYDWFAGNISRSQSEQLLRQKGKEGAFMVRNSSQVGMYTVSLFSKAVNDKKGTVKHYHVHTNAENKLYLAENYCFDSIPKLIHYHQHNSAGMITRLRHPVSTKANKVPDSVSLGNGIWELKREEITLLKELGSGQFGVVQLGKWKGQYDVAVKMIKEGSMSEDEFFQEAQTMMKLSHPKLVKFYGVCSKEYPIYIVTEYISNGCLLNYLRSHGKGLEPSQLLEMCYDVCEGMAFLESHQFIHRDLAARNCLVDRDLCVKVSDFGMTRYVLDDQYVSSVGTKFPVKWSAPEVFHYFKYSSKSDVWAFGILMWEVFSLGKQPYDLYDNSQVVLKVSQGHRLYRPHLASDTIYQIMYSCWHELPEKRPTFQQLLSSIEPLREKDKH
Chain of Dual specificity tyrosine-phosphorylation-regulated kinase 2 (Homo sapiens) (Q92630 whole entry): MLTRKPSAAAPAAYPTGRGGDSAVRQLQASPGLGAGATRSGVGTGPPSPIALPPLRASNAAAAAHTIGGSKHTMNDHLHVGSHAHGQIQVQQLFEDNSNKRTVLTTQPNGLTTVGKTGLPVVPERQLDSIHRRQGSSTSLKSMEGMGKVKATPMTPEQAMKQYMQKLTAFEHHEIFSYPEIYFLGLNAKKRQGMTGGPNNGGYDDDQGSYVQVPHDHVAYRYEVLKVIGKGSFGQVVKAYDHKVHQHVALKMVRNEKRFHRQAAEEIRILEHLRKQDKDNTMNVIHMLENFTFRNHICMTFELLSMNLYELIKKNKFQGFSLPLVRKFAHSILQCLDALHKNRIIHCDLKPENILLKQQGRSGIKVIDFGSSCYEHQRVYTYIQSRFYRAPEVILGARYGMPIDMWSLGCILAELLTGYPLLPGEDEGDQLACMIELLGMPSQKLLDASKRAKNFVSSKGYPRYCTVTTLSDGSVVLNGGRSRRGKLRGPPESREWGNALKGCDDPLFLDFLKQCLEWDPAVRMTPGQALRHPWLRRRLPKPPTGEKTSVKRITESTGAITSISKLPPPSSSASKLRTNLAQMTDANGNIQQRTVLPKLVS

In general, half-life refers to the time needed for the level to fall by half in the phase considered. In the case of `OCCOCc1cn(CCNc2nonc2/C(=N/O)Nc2ccc(F)c(Br)c2)nn1`, the half-life in series [1] was found to be 5.66 min. Besides, the inhibition result in series [2], in series [3], in series [4], in series [5], in [6] and in series [7] was “inactive” throughout. Also, the inhibition entry in [8], in [9] and in [10] was “inactive” in each case.
